Measurements: US12440484B2, “1,3,4-oxadiazole homophthalimide derivative compounds as histone deacetylase 6 inhibitor, and the pharmaceutical composition comprising the same” (Chong Kun Dang Pharmaceutical Corp., priority 2019, dated 2025)

Experiments:
HDAC6 human recombinant = HDAC6 human recombinant (Homo sapiens (Human), UniProt Q9UBN7); assay: HDAC enzyme activity inhibition (in vitro), HDAC6 assay; format: biochemical; details: samples at 0.1, 1, 10, 100 and 1000 nM; 37° C. 60 minutes; fluorescence Ex 390, Em 460
HDAC1 = HDAC1 (Homo sapiens (Human), UniProt Q13547); assay: HDAC enzyme activity inhibition (in vitro), HDAC1 Fluorimetric Drug Discovery Assay Kit; format: biochemical; details: samples at 100, 1000 and 10000 nM; 37° C. 60 minutes; fluorescence Ex 390, Em 460
HDAC1, sequence (Q13547 whole entry): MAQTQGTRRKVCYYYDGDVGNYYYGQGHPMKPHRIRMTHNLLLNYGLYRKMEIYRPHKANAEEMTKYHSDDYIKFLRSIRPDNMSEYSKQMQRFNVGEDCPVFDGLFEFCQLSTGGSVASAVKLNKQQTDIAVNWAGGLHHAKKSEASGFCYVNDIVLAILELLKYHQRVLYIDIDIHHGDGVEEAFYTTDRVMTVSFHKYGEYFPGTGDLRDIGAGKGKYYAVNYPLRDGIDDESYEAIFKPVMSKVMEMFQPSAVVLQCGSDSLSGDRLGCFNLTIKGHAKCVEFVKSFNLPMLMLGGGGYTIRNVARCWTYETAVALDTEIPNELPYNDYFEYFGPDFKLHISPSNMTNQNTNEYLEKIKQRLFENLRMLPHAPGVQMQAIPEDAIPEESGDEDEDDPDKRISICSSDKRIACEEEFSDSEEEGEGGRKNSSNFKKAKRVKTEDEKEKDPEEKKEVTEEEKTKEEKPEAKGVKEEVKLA

HDAC6 human recombinant, sequence (Q9UBN7 whole entry): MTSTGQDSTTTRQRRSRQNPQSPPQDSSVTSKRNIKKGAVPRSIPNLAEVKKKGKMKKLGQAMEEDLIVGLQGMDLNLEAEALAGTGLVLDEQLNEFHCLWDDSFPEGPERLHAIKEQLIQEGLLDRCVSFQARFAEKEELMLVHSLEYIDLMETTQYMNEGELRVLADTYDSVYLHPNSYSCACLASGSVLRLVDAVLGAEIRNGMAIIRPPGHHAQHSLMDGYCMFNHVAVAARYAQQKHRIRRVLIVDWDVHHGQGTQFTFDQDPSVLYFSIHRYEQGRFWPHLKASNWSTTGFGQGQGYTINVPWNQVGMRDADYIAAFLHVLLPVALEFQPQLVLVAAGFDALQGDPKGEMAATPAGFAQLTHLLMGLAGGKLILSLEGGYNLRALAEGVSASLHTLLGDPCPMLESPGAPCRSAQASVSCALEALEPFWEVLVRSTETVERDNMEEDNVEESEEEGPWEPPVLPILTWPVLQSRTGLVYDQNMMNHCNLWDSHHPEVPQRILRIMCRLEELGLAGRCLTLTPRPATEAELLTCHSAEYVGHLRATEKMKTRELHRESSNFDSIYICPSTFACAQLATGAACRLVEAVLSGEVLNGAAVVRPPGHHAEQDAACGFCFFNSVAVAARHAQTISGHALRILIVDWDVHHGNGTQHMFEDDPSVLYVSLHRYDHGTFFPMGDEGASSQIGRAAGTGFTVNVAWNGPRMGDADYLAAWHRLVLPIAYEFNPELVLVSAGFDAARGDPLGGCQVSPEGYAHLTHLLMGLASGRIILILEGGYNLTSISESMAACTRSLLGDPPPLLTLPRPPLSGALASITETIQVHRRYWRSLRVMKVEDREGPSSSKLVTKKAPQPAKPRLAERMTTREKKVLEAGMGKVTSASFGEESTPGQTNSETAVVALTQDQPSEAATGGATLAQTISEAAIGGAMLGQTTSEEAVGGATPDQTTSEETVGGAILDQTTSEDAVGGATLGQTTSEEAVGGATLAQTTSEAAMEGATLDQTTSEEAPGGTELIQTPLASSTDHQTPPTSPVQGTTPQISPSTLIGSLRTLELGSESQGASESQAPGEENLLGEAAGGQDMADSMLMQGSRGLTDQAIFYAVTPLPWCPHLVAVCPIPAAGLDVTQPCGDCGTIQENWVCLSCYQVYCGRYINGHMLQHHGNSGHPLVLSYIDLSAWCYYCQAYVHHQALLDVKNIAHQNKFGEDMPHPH

IC50 (HDAC6 human recombinant) | IC50 (HDAC1) | SMILES
125 nM | > 10000 nM | CC1(C)C(=O)N(Cc2ncc(-c3nnc(C(F)F)o3)cn2)C(=O)c2ccc(Br)cc21 [Compound 152, 6-bromo-2-((5-(5-(difluoromethyl)-1,3,4-oxadiazole-2-yl)pyrimidine-2-yl)methyl)-4,4-dimethylisoquinoline-1,3(2H,4H)-dione]
34 nM | > 10000 nM | CC(C)CN1CCC(c2ccc3c(c2)C(=O)N(Cc2ccc(-c4nnc(C(F)F)o4)cn2)C(=O)C3(C)C)CC1 [Compound 144, 2-((5-(5-(difluoromethyl)-1,3,4-oxadiazole-2-yl)pyridine-2-yl)methyl)-7-(1-isobutylpiperidine-4-yl)-4,4-dimethylisoquinoline-1,3(2H,4H)-dione]
89 nM | > 10000 nM | CC1(C)C(=O)N(Cc2ccc(-c3nnc(C(F)F)o3)cn2)C(=O)c2ccc(N3CCN(CC(F)(F)C(F)F)CC3)cc21 [Compound 137, 2-((5-(5-(difluoromethyl)-1,3,4-oxadiazole-2-yl)pyridine-2-yl)methyl)-4,4-dimethyl-6-(4-(2,2,3,3-tetrafluoropropyl)piperazine-1-yl)isoquinoline-1,3(2H,4H)-dione]
70 nM | > 10000 nM | CC1(C)C(=O)N(Cc2ccc(-c3nnc(C(F)F)o3)cn2)C(=O)c2cc(C3CCN(S(C)(=O)=O)CC3)ccc21 [Compound 128, 2-((5-(5-(difluoromethyl)-1,3,4-oxadiazole-2-yl)pyridine-2-yl)methyl)-4,4-dimethyl-7-(1-(methylsulfonyl)piperidine-4-yl)isoquinoline-1,3(2H,4H)-dione]
62 nM | > 10000 nM | CC(C)CN1CCN(c2ccc3c(c2)C(=O)N(Cc2ccc(-c4nnc(C(F)F)o4)cn2)C(=O)C3(C)C)CC1 [Compound 131, 2-((5-(5-(difluoromethyl)-1,3,4-oxadiazole-2-yl)pyridine-2-yl)methyl)-7-(4-isobutylpiperazine-1-yl)-4,4-dimethylisoquinoline-1,3(2H,4H)-dione]
76 nM | > 10000 nM | CC1(C)C(=O)N(Cc2ccc(-c3nnc(C(F)F)o3)cn2)C(=O)c2cc(N3CCN(CC(F)(F)F)CC3)ccc21 [Compound 133, 2-((5-(5-(difluoromethyl)-1,3,4-oxadiazole-2-yl)pyridine-2-yl)methyl)-4,4-dimethyl-7-(4-(2,2,2-trifluoroethyl)piperazine-1-yl)isoquinoline-1,3(2H,4H)-dione]
15 nM | > 10000 nM | CN(C)C1CCN(c2ccc3c(c2)C(C)(C)C(=O)N(Cc2ccc(-c4nnc(C(F)F)o4)cn2)C3=O)CC1 [Compound 37, 2-((5-(5-(difluoromethyl)-1,3,4-oxadiazole-2-yl)pyridine-2-yl)methyl)-6-(4-(dimethylamino)piperidine-1-yl)-4,4-dimethylisoquinoline-1,3(2H,4H)-dione]
26 nM | > 10000 nM | COCCN1CCN(c2ccc3c(c2)C(C)(C)C(=O)N(Cc2ccc(-c4nnc(C(F)F)o4)cn2)C3=O)CC1 [Compound 35, 2-((5-(5-(difluoromethyl)-1,3,4-oxadiazole-2-yl)pyridine-2-yl)methyl)-6-(4-(2-methoxyethyl)piperazine-1-yl)-4,4-dimethylisoquinoline-1,3(2H,4H)-dione]
55 nM | > 10000 nM | CCC1(CC)C(=O)N(Cc2ccc(-c3nnc(C(F)F)o3)cn2)C(=O)c2ccc(N3CCN(C(C)=O)CC3)cc21 [Compound 136, 6-(4-acetylpiperazine-1-yl)-2-((5-(5-(difluoromethyl)-1,3,4-oxadiazole-2-yl)pyridine-2-yl)methyl)-4,4-diethylisoquinoline-1,3(2H,4H)-dione]
19 nM | > 10000 nM | CC(C)N1CCC(c2ccc3c(c2)C(=O)N(Cc2ccc(-c4nnc(C(F)F)o4)cn2)C(=O)C3(C)C)CC1 [Compound 69, 2-((5-(5-(difluoromethyl)-1,3,4-oxadiazole-2-yl)pyridine-2-yl)methyl)-7-(1-isopropylpiperidine-4-yl)-4,4-dimethylisoquinoline-1,3(2H,4H)-dione]
126 nM | > 10000 nM | O=c1c2ccccc2n(CCN2CCCCC2)c(=O)n1Cc1ccc(-c2nnc(C(F)F)o2)cn1 [Compound 9, 3-((5-(5-(difluoromethyl)-1,3,4-oxadiazole-2-yl)pyridine-2-yl)methyl)-1-(2-(piperidine-1-yl)ethyl)quinazoline-2,4(1H,3H)-dione]
17 nM | > 10000 nM | CN1CCN(c2ccc3c(c2)C(C)(C)C(=O)N(Cc2ccc(-c4nnc(C(F)F)o4)cn2)C3=O)CC12CC2 [Compound 80, 2-((5-(5-(difluoromethyl)-1,3,4-oxadiazole-2-yl)pyridine-2-yl)methyl)-4,4-dimethyl-6-(4-methyl-4,7-diazaspiro[2.5]octane-7-yl)isoquinoline-1,3(2H,4H)-dione]
15 nM | > 10000 nM | CC1(C)C(=O)N(Cc2ccc(-c3nnc(C(F)F)o3)cn2)C(=O)c2cc(-c3ccncc3)ccc21 [Compound 110, 2-((5-(5-(difluoromethyl)-1,3,4-oxadiazole-2-yl)pyridine-2-yl)methyl)-4,4-dimethyl-7-(pyridine-4-yl)isoquinoline-1,3(2H,4H)-dione]
10 nM | > 10000 nM | CC1(C)C(=O)N(Cc2ccc(-c3nnc(C(F)F)o3)cn2)C(=O)c2ccc(-c3ccncc3)cc21 [Compound 105, 2-((5-(5-(difluoromethyl)-1,3,4-oxadiazole-2-yl)pyridine-2-yl)methyl)-4,4-dimethyl-6-(pyridine-4-yl)isoquinoline-1,3(2H,4H)-dione]
318 nM | > 10000 nM | O=C1c2ccccc2C2(CCC2)C(=O)N1Cc1ccc(-c2nnc(C(F)F)o2)cc1F [Compound 3, 2′-(4-(5-(difluoromethyl)-1,3,4-oxadiazole-2-yl)-2-fluorobenzyl)-1′H-spiro[cyclobutane-1,4′-isoquinoline]-1′,3′(2′H)-dione]
561 nM | > 10000 nM | O=C1c2ccccc2C(=O)N1Cc1ccc(-c2nnc(C(F)F)o2)cc1F [Compound 2, 2-(4-(5-(difluoromethyl)-1,3,4-oxadiazole-2-yl)-2-fluorobenzyl)isoindoline-1,3-dione]
41 nM | > 10000 nM | CC1(C)C(=O)N(Cc2ccc(-c3nnc(C(F)F)o3)cn2)C(=O)c2ccc(N3CC(F)(F)C3)cc21 [Compound 49, 6-(3,3-difluoroazetidine-1-yl)-2-((5-(5-(difluoromethyl)-1,3,4-oxadiazole-2-yl)pyridine-2-yl)methyl)-4,4-dimethylisoquinoline-1,3(2H,4H)-dione]
79 nM | > 10000 nM | CC1(C)C(=O)N(Cc2ccc(-c3nnc(C(F)F)o3)cn2)C(=O)c2c(-c3ccncc3)cccc21 [Compound 84, 2-((5-(5-(difluoromethyl)-1,3,4-oxadiazole-2-yl)pyridine-2-yl)methyl)-4,4-dimethyl-8-(pyridine-4-yl)isoquinoline-1,3(2H,4H)-dione]
95 nM | > 10000 nM | CC(C)CN1CCN(c2ccc3c(c2)C(C)(C)C(=O)N(Cc2ccc(-c4nnc(C(F)F)o4)cn2)C3=O)CC1 [Compound 149, 2-((5-(5-(difluoromethyl)-1,3,4-oxadiazole-2-yl)pyridine-2-yl)methyl)-6-(4-isobutylpiperazine-1-yl)-4,4-dimethylisoquinoline-1,3(2H,4H)-dione]
200 nM | > 10000 nM | CC(C)(C)OC(=O)N1CCN(c2ccc3c(c2)C(=O)N(Cc2ccc(-c4nnc(C(F)F)o4)cn2)C(=O)C3(C)C)CC1 [Compound 116, tert-butyl 4-(2-((5-(5-(difluoromethyl)-1,3,4-oxadiazole-2-yl)pyridine-2-yl)methyl)-4,4-dimethyl-1,3-dioxo-1,2,3,4-tetrahydroisoquinoline-7-yl)piperazine-1-carboxylate]
33 nM | > 10000 nM | Cn1c(=O)n(Cc2ccc(-c3nnc(C(F)F)o3)cn2)c(=O)c2ccc(-c3ccncc3)cc21 [Compound 101, 3-((5-(5-(difluoromethyl)-1,3,4-oxadiazole-2-yl)pyridine-2-yl)methyl)-1-methyl-7-(pyridine-4-yl)quinazoline-2,4(1H,3H)-dione]
158 nM | > 10000 nM | CC(C)(C)OC(=O)N1CCN(c2ccc3c(c2)C(C)(C)C(=O)N(Cc2ccc(-c4nnc(C(F)F)o4)cn2)C3=O)CC1 [Compound 25, tert-butyl 4-(2-((5-(5-(difluoromethyl)-1,3,4-oxadiazole-2-yl)pyridine-2-yl)methyl)-4,4-dimethyl-1,3-dioxo-1,2,3,4-tetrahydroisoquinoline-6-yl)piperazine-1-carboxylate]
196 nM | > 10000 nM | CN1CCC(Cn2c(=O)n(Cc3ccc(-c4nnc(C(F)F)o4)cn3)c(=O)c3ccccc32)CC1 [Compound 15, 3-((5-(5-(difluoromethyl)-1,3,4-oxadiazole-2-yl)pyridine-2-yl)methyl)-1-((1-methylpiperidine-4-yl)methyl)quinazoline-2,4(1H,3H)-dione]
23 nM | > 10000 nM | Cn1c(=O)n(Cc2ccc(-c3nnc(C(F)F)o3)cn2)c(=O)c2cc(-c3ccco3)ccc21 [Compound 87, 3-((5-(5-(difluoromethyl)-1,3,4-oxadiazole-2-yl)pyridine-2-yl)methyl)-6-(furan-2-yl)-1-methylquinazoline-2,4(1H,3H)-dione]
14 nM | > 10000 nM | CC1(C)C(=O)N(Cc2ccc(-c3nnc(C(F)F)o3)cn2)C(=O)c2ccc(N3C[C@@H]4C[C@H]3CN4S(C)(=O)=O)cc21 [Compound 58, 2-((5-(5-(difluoromethyl)-1,3,4-oxadiazole-2-yl)pyridine-2-yl)methyl)-4,4-dimethyl-6-((1S,4S)-5-(methylsulfonyl)-2,5-diazabicyclo[2.2.1]heptane-2-yl)isoquinoline-1,3(2H,4H)-dione]

SMILES | IC50 (HDAC6 human recombinant) | IC50 (HDAC1)
O=c1c2cc(F)ccc2n(CCN2CCCCC2)c(=O)n1Cc1ccc(-c2nnc(C(F)F)o2)cn1 [Compound 71, 3-((5-(5-(difluoromethyl)-1,3,4-oxadiazole-2-yl)pyridine-2-yl)methyl)-6-fluoro-1-(2-(piperidine-1-yl)ethyl)quinazoline-2,4(1H,3H)-dione] | 150 nM | > 10000 nM
